This passage reports melting point results from patent US6903086B2, “Alkoxycarbonylamino benzoic acid or alkoxycarbonylamino tetrazolyl phenyl derivatives as IP antagonists” (SYNTEX (U.S.A.) LLC, priority 2001, dated 2005).

Regarding `O=C(Nc1ccc(-c2ccccc2)cc1C(=O)O)OCc1cc2cc(-c3ccccc3)ccc2o1` [compound 10, 4-(5-phenyl-benzofuran-2-ylmethoxycarbonylamino)-biphenyl-3-carboxylic acid], the melting point (as a rule, the temperature of the solid-liquid transition) was 225.9 to 226.2 °C.

As to `O=C(Nc1cc(-c2ccccc2)ccc1C(=O)O)OCc1cc2cc(-c3ccccc3)ccc2o1` [compound 11, 3-(5-phenyl-benzofuran-2-ylmethoxycarbonylamino)-biphenyl-4-carboxylic acid], the melting point was 229.5 to 230 °C.

Molecule `O=C(Nc1ccc(-c2ccc(F)cc2)cc1C(=O)O)OCc1cc2cc(-c3ccccc3)ccc2o1` [compound 12, 4′-fluoro-4-(5-phenyl-benzofuran-2-ylmethoxycarbonylamino)-biphenyl-3-carboxylic acid] yielded a melting point of 229.4 to 229.6 °C.

For the molecule `O=C(Nc1ccc(-c2ccsc2)cc1C(=O)O)OCc1cc2cc(-c3ccccc3)ccc2o1` [compound 13, 2-(5-phenyl-benzofuran-2-ylmethoxycarbonylamino)-5-thiophen-3-yl-benzoic acid], the melting point was 229.5 to 230 °C.

Take `O=C(Nc1ccc(-c2ccc(F)cc2)cc1C(=O)O)OCc1cc2cc(-c3ccc(F)cc3)ccc2o1` [compound 14, 4′-fluoro-4-[5-(4-fluoro-phenyl)-benzofuran-2-ylmethoxycarbonylamino]-biphenyl-3-carboxylic acid]: the melting point lay in the range of 235.1 to 235.7 °C.

Regarding `O=C(Nc1ccc(-c2ccccc2)cc1C(=O)O)OCc1cc2cc(-c3ccc(F)cc3)ccc2o1` [compound 15, 4-[5-(4-fluoro-phenyl)-benzofuran-2-ylmethoxycarbonylamino]-biphenyl-3-carboxylic acid], the melting point was in the range of 231.3 to 231.6 °C.

In turn, `O=C(Nc1ccc(-c2cccnc2)cc1C(=O)O)OCc1cc2cc(-c3ccc(F)cc3)ccc2o1` [compound 16, 2-[5-(4-fluoro-phenyl)-benzofuran-2-ylmethoxycarbonylamino]-5-pyridin-3-yl-benzoic acid] showed a melting point of 225.7 to 229.3 °C.

With `O=C(Nc1ccccc1C(=O)O)OCc1cc2cc(-c3ccccc3)ccc2o1` [compound 17, 2-(5-phenyl-benzofuran-2-ylmethoxycarbonylamino)-benzoic acid], the melting point lay within 203.6 to 203.8 °C.

Take `O=C(Nc1cc2ccccc2cc1C(=O)O)OCc1cc2cc(-c3ccccc3)ccc2o1` [compound 18, 3-(5-phenyl-benzofuran-2-ylmethoxycarbonylamino)-naphthalene-2-carboxylic acid]: the melting point is 225.6 to 225.8 °C.

`O=C(Nc1ccc(Br)cc1C(=O)O)OCc1cc2cc(-c3ccccc3)ccc2o1` [compound 19, 5-bromo-2-(5-phenyl-benzofuran-2-ylmethoxycarbonylamino)-benzoic acid] came in with a melting point of 221.2 to 222 °C.

For `CS(=O)(=O)c1ccc(NC(=O)OCc2cc3cc(-c4ccccc4)ccc3o2)c(C(=O)O)c1` [compound 20, 5-methanesulfonyl-2-(5-phenyl-benzofuran-2-ylmethoxycarbonylamino)-benzoic acid], the melting point is 234 to 235 °C.

In turn, `N#Cc1ccc(NC(=O)OCc2cc3cc(-c4ccccc4)ccc3o2)c(C(=O)O)c1` [compound 21, 5-cyano-2-(5-phenyl-benzofuran-2-ylmethoxycarbonylamino)-benzoic acid] returned a melting point of 213.9 to 214.5 °C.

Take `O=C(Nc1c(Cl)cc(Cl)cc1C(=O)O)OCc1cc2cc(-c3ccc(F)cc3)ccc2o1` [compound 22, 3,5-dichloro-2-[5-(4-fluoro-phenyl)-benzofuran-2-ylmethoxycarbonylamino]-benzoic acid]: the melting point is 177.7 to 178.5 °C.

On to `O=C(Nc1ccc(F)cc1C(=O)O)OCc1cc2cc(-c3ccc(F)cc3)ccc2o1` [compound 23, 5-fluoro-2-[5-(4-fluoro-phenyl)-benzofuran-2-ylmethoxycarbonylamino]-benzoic acid], for which the melting point is 210 to 211.9 °C.

As to `O=C(Nc1ccc(Cl)cc1C(=O)O)OCc1cc2cc(-c3ccc(F)cc3)ccc2o1` [compound 24, 5-chloro-2-[5-(4-fluoro-phenyl)-benzofuran-2-ylmethoxycarbonylamino]-benzoic acid], the melting point lay within 216.7 to 217.3 °C.

As for `O=C(Nc1cccc(Cl)c1C(=O)O)OCc1cc2cc(-c3ccc(F)cc3)ccc2o1` [compound 25, 2-chloro-6-[5-(4-fluoro-phenyl)-benzofuran-2-ylmethoxycarbonylamino]-benzoic acid], the melting point fell in the range of 216.7 to 217.3 °C.

With `O=C(Nc1ccc(Br)cc1C(=O)O)OCc1cc2cc(-c3ccc(F)cc3)ccc2o1` [compound 26, 5-bromo-2-[5-(4-fluoro-phenyl)-benzofuran-2-ylmethoxycarbonylamino]-benzoic acid], the melting point was in the range of 220.3 to 220.6 °C.

In turn, `Cc1cccc(NC(=O)OCc2cc3cc(-c4ccc(F)cc4)ccc3o2)c1C(=O)O` [compound 27, 2-[5-(4-fluoro-phenyl)-benzofuran-2-ylmethoxycarbonylamino]-6-methyl-benzoic acid] registered a melting point of 176.1 to 178.8 °C.

In turn, `Cc1ccc(NC(=O)OCc2cc3cc(-c4ccc(F)cc4)ccc3o2)c(C(=O)O)c1` [compound 28, 2-[5-(4-fluoro-phenyl)-benzofuran-2-ylmethoxycarbonylamino]-5-methyl-benzoic acid] registered a melting point of 190.8 to 191.9 °C.

The molecule `COc1cccc(NC(=O)OCc2cc3cc(-c4ccc(F)cc4)ccc3o2)c1C(=O)O` [compound 29, 2-[5-(4-fluoro-phenyl)-benzofuran-2-ylmethoxycarbonylamino]-6-methoxy-benzoic acid] showed a melting point of 160.5 to 164.3 °C.

Molecule `O=C(Nc1cccc([N+](=O)[O-])c1C(=O)O)OCc1cc2cc(-c3ccc(F)cc3)ccc2o1` [compound 30, 2-[5-(4-fluoro-phenyl)-benzofuran-2-ylmethoxycarbonylamino]-6-nitro-benzoic acid] came in with a melting point of 191.5 to 191.9 °C.

In turn, `Cc1ccc(NC(=O)OCc2cc3cc(-c4ccsc4)ccc3o2)c(C(=O)O)c1` [compound 31, 5-methyl-2-(5-thiophen-3-yl-benzofuran-2-ylmethoxycarbonylamino)-benzoic acid] displayed a melting point of 213.2 to 215.1 °C.

For `O=C(Nc1ccc(-c2ccc(F)cc2)cc1C(=O)O)OCc1cc2cc(-c3ccsc3)ccc2o1` [compound 32, 4′-fluoro-4-(5-thiophen-3-yl-benzofuran-2-ylmethoxycarbonylamino)-biphenyl-3-carboxylic acid], the melting point was in the range of 213.2 to 215.1 °C.

For `N#Cc1cccc(NC(=O)OCc2cc3cc(-c4ccc(F)cc4)ccc3o2)c1C(=O)O` [compound 33, 2-cyano-6-[5-(4-fluoro-phenyl)-benzofuran-2-ylmethoxycarbonylamino]-benzoic acid], the melting point was 150 °C (dec.).

Take `O=C(Nc1ccc(-c2ccc(F)cc2)cc1C(=O)O)OCc1cc2cc(-c3cccnc3)ccc2o1` [compound 34, 4′-fluoro-4-(5-pyridin-3-yl-benzofuran-2-ylmethoxycarbonylamino)-biphenyl-3-carboxylic acid]: the melting point was in the range of 237.1 to 237.5 °C.

The molecule `Cc1ccc(NC(=O)OCc2cc3cc(-c4cccnc4)ccc3o2)c(C(=O)O)c1` [compound 35, 5-methyl-2-(5-pyridin-3-yl-benzofuran-2-ylmethoxycarbonylamino)-benzoic acid] had a melting point of 200.1 to 200.4 °C.

On to `O=C(Nc1cccc(Cl)c1C(=O)O)OCc1cc2cc(-c3cccnc3)ccc2o1` [compound 36, 2-chloro-6-(5-pyridin-3-yl-benzofuran-2-ylmethoxycarbonylamino)-benzoic acid], for which the melting point was in the range of 172 to 174 °C.

As to `O=C(Nc1cccc(Cl)c1C(=O)O)OCc1cc2cc(-c3cncnc3)ccc2o1` [compound 37, 2-chloro-6-(5-pyrimidin-5-yl-benzofuran-2-ylmethoxycarbonylamino)-benzoic acid], the melting point was in the range of 192.8 to 194.3 °C.

In the case of `O=C(Nc1cccc(Cl)c1C(=O)O)OCc1cc2cc(-c3ccccn3)ccc2o1` [compound 38, 2-chloro-6-(5-pyridin-2-yl-benzofuran-2-ylmethoxycarbonylamino)-benzoic acid], the melting point is 134.8 to 144.1 °C.

With `O=C(Nc1cccc(Cl)c1C(=O)O)OCc1cc2cc(-c3cnccn3)ccc2o1` [compound 39, 2-chloro-6-(5-pyrazin-2-yl-benzofuran-2-ylmethoxycarbonylamino)-benzoic acid], the melting point lay within 212 to 214.1 °C.

The molecule `O=C(Nc1cccc(Cl)c1C(=O)O)OCc1cc2cc(-c3ccnnc3)ccc2o1` [compound 40, 2-chloro-6-(5-pyridazin-4-yl-benzofuran-2-ylmethoxycarbonylamino)-benzoic acid] registered a melting point of 179 to 182.2 °C.

The molecule `Cc1cc(Br)ccc1NC(=O)OCc1cc2cc(-c3cccnc3)ccc2o1` [compound 41, (4-bromo-2-methyl-phenyl)-carbamic acid 5-pyridin-3-yl-benzofuran-2-ylmethyl ester] had a melting point of 213.9 to 214.5 °C.

Molecule `O=C(Nc1cccc(Br)c1C(=O)O)OCc1cc2cc(-c3ccc(F)cc3)ccc2o1` [compound 42, 2-bromo-6-[5-(4-fluoro-phenyl)-benzofuran-2-ylmethoxycarbonylamino]-benzoic acid] displayed a melting point of 170.6 to 172 °C.

Molecule `O=C(O)Cc1ccccc1NC(=O)OCc1cc2cc(-c3ccccc3)ccc2o1` [compound 42, [2-(5-phenyl-benzofuran-2-ylmethoxycarbonylamino)-phenyl]-acetic acid] yielded a melting point of 169.5 to 170.9 °C.

The molecule `O=C(Nc1ccc2ccccc2c1C(=O)O)OCc1cc2cc(-c3ccccc3)ccc2o1` [compound 201, 2-(5-phenyl-benzofuran-2-ylmethoxycarbonylamino)-naphthalene-1-carboxylic acid] showed a melting point of 174.5 to 177.2 °C.

The molecule `O=C(Nc1ccc2ccccc2c1C(=O)O)OCc1cc2cc(-c3ccc(F)cc3)ccc2o1` [compound 202, 2-[5-(4-fluoro-phenyl)-benzofuran-2-ylmethoxycarbonylamino]-naphthalene-1-carboxylic acid] displayed a melting point of 204.5 to 205 °C.
